Source: the NIST ThermoML archive (doi:10.1016/j.jct.2012.02.028)
± gives the expanded uncertainty stated by the source.

Assay: molar heat capacity at constant pressure
Conditions: 101.33 kPa, Crystal, Vacuum adiabatic calorimetry

O=C([O-])[O-].[Zn+2] [zinc(II) carbonate]
Conditions | molar heat capacity at constant pressure [J/K/mol]
4.397 K | 0.009408 ± 0.0078
4.399 K | 0.007545 ± 0.0078
4.757 K | 0.006774 ± 0.0078
4.774 K | 0.006545 ± 0.0078
5 K | 0.00773 ± 0.01
5.101 K | 0.008038 ± 0.0078
5.155 K | 0.008164 ± 0.0078
5.346 K | 0.01084 ± 0.0078
5.423 K | 0.0117 ± 0.0078
5.582 K | 0.01132 ± 0.0078
5.688 K | 0.00813 ± 0.0078
5.816 K | 0.01409 ± 0.0078
5.946 K | 0.01317 ± 0.0078
6.06 K | 0.0142 ± 0.0078
6.285 K | 0.01382 ± 0.0078
6.398 K | 0.01585 ± 0.0079
6.723 K | 0.01601 ± 0.0079
6.824 K | 0.01961 ± 0.0079
7.156 K | 0.02326 ± 0.0079
7.254 K | 0.02331 ± 0.0079
7.601 K | 0.02683 ± 0.0079
7.692 K | 0.02785 ± 0.0079
8.054 K | 0.03096 ± 0.0079
8.134 K | 0.03204 ± 0.008
8.509 K | 0.03516 ± 0.008
8.576 K | 0.03774 ± 0.008
8.961 K | 0.04103 ± 0.008
9.021 K | 0.04305 ± 0.008
9.412 K | 0.0479 ± 0.008
9.468 K | 0.05013 ± 0.0081
9.862 K | 0.05547 ± 0.0081
9.915 K | 0.05829 ± 0.0081
10 K | 0.05961 ± 0.01
10.54 K | 0.07294 ± 0.0082
10.59 K | 0.07477 ± 0.0082
11.45 K | 0.09358 ± 0.0083
11.5 K | 0.09604 ± 0.0083
12.37 K | 0.1193 ± 0.0084
12.41 K | 0.1215 ± 0.0084
13.29 K | 0.1517 ± 0.009
13.33 K | 0.153 ± 0.009
14.22 K | 0.1928 ± 0.0097
14.26 K | 0.193 ± 0.0097
15 K | 0.2346 ± 0.012
15.15 K | 0.245 ± 0.011
15.18 K | 0.2446 ± 0.011
16.08 K | 0.2992 ± 0.012
16.12 K | 0.2986 ± 0.012
17.02 K | 0.3595 ± 0.013
17.05 K | 0.3608 ± 0.013
17.97 K | 0.4461 ± 0.016
17.99 K | 0.4463 ± 0.016
18.91 K | 0.535 ± 0.018
18.93 K | 0.5407 ± 0.018
19.85 K | 0.6305 ± 0.02
19.88 K | 0.6346 ± 0.021
20 K | 0.6547 ± 0.014
21.27 K | 0.8212 ± 0.026
21.29 K | 0.8243 ± 0.026
23.14 K | 1.091 ± 0.033
23.17 K | 1.096 ± 0.033
25 K | 1.427 ± 0.017
25.06 K | 1.439 ± 0.043
26.95 K | 1.841 ± 0.054
28.85 K | 2.31 ± 0.067
30 K | 2.613 ± 0.045
30.77 K | 2.836 ± 0.087
32.69 K | 3.401 ± 0.1
34.62 K | 4.038 ± 0.12
35 K | 4.162 ± 0.048
36.33 K | 4.607 ± 0.14
36.56 K | 4.711 ± 0.14
38.5 K | 5.446 ± 0.16
38.58 K | 5.466 ± 0.16
40 K | 6.03 ± 0.052
40.52 K | 6.253 ± 0.047
42.46 K | 7.047 ± 0.05
44.41 K | 7.863 ± 0.054
45 K | 8.122 ± 0.056
46.36 K | 8.699 ± 0.057
48.32 K | 9.572 ± 0.061
50 K | 10.39 ± 0.06
50.28 K | 10.5 ± 0.065
52.24 K | 11.48 ± 0.069
54.21 K | 12.47 ± 0.074
55 K | 12.79 ± 0.07
56.18 K | 13.4 ± 0.078
58.15 K | 14.28 ± 0.082
60 K | 15.28 ± 0.07
60.13 K | 15.34 ± 0.087
62.1 K | 16.36 ± 0.091
64.08 K | 17.36 ± 0.096
65 K | 17.8 ± 0.08
66.07 K | 18.36 ± 0.1
68.03 K | 19.3 ± 0.1
69.94 K | 20.27 ± 0.11
70 K | 20.32 ± 0.08
72.36 K | 21.49 ± 0.12
75 K | 22.79 ± 0.09
75.35 K | 22.97 ± 0.12
78.35 K | 24.46 ± 0.13
79.92 K | 25.19 ± 0.13
80 K | 25.24 ± 0.09
83.21 K | 26.77 ± 0.089
85 K | 27.63 ± 0.1
86.23 K | 28.21 ± 0.092
89.26 K | 29.61 ± 0.096
90 K | 29.96 ± 0.23
92.3 K | 31 ± 0.18
95 K | 32.21 ± 0.23
95.35 K | 32.37 ± 0.18
98.41 K | 33.68 ± 0.18
100 K | 34.37 ± 0.23
101.48 K | 34.99 ± 0.18
104.55 K | 36.23 ± 0.18
105 K | 36.41 ± 0.24
107.64 K | 37.47 ± 0.19
110 K | 38.38 ± 0.24
110.74 K | 38.65 ± 0.19
113.84 K | 39.83 ± 0.19
115 K | 40.26 ± 0.24
116.95 K | 40.98 ± 0.19
120 K | 42.07 ± 0.24
120.07 K | 42.09 ± 0.2
123.2 K | 43.18 ± 0.2
126.34 K | 44.26 ± 0.2
129.51 K | 45.31 ± 0.2
130 K | 45.47 ± 0.25
132.66 K | 46.33 ± 0.2
135.83 K | 47.34 ± 0.2
139 K | 48.32 ± 0.2
140 K | 48.63 ± 0.25
142.19 K | 49.32 ± 0.21
145.38 K | 50.23 ± 0.21
148.58 K | 51.14 ± 0.21
150 K | 51.6 ± 0.25
151.79 K | 52.15 ± 0.21
155.01 K | 53.02 ± 0.21
158.25 K | 53.93 ± 0.21
160 K | 54.36 ± 0.25
161.49 K | 54.75 ± 0.22
164.72 K | 55.64 ± 0.22
167.92 K | 56.45 ± 0.22
170 K | 56.93 ± 0.26
171.08 K | 57.17 ± 0.22
174.21 K | 57.91 ± 0.22
177.3 K | 58.72 ± 0.22
180 K | 59.33 ± 0.26
180.39 K | 59.37 ± 0.23
183.43 K | 60.04 ± 0.23
186.44 K | 60.81 ± 0.23
189.44 K | 61.49 ± 0.23
190 K | 61.57 ± 0.26
192.42 K | 62.17 ± 0.23
195.37 K | 62.73 ± 0.23
198.3 K | 63.33 ± 0.23
200 K | 63.68 ± 0.26
201.2 K | 63.91 ± 0.23
204.09 K | 64.5 ± 0.23
206.97 K | 65.04 ± 0.24
209.83 K | 65.68 ± 0.24
210 K | 65.75 ± 0.27
212.67 K | 66.32 ± 0.24
215.51 K | 66.8 ± 0.24
218.32 K | 67.43 ± 0.24
220 K | 67.73 ± 0.27
221.12 K | 67.91 ± 0.24
223.9 K | 68.47 ± 0.24
226.71 K | 68.96 ± 0.24
229.46 K | 69.59 ± 0.24
230 K | 69.62 ± 0.27
232.21 K | 70.19 ± 0.25
234.93 K | 70.69 ± 0.25
237.65 K | 71.17 ± 0.25
240 K | 71.45 ± 0.27
240.37 K | 71.48 ± 0.25
243.07 K | 71.89 ± 0.25
245.76 K | 72.45 ± 0.25
248.45 K | 72.82 ± 0.25
250 K | 73.2 ± 0.27
251.12 K | 73.38 ± 0.25
253.79 K | 73.81 ± 0.25
256.45 K | 74.15 ± 0.25
259.09 K | 74.66 ± 0.25
260 K | 74.88 ± 0.27
261.74 K | 75.21 ± 0.26
264.38 K | 75.75 ± 0.26
267.01 K | 76.21 ± 0.26
269.71 K | 76.37 ± 0.26
270 K | 76.38 ± 0.28
272.34 K | 76.67 ± 0.26
273.15 K | 76.84 ± 0.28
274.96 K | 77.02 ± 0.26
277.57 K | 77.36 ± 0.26
280 K | 77.83 ± 0.28
280.18 K | 77.77 ± 0.26
282.78 K | 78.17 ± 0.26
285.37 K | 78.56 ± 0.26
287.95 K | 78.94 ± 0.26
290 K | 79.24 ± 0.28
290.53 K | 79.31 ± 0.26
293.11 K | 79.67 ± 0.26
295.68 K | 80.03 ± 0.27
298.15 K | 80.36 ± 0.28
298.24 K | 80.38 ± 0.27
300 K | 80.6 ± 0.28
300.8 K | 80.74 ± 0.27
303.36 K | 81.1 ± 0.27
305.91 K | 81.42 ± 0.27
308.46 K | 81.77 ± 0.27
310 K | 81.91 ± 0.28
311.15 K | 82.06 ± 0.27
313.7 K | 82.4 ± 0.27
316.26 K | 82.71 ± 0.27
318.8 K | 83 ± 0.27
320 K | 83.17 ± 0.28
321.35 K | 83.28 ± 0.27
